In ChEMBL document CHEMBL1149241 (J Med Chem, 2004):
pIC50: −log10 of the molar value.

Target: Beta-secretase 1 (Homo sapiens, UniProt P56817)
Test: Inhibition of BACE1 by electrochemiluminescence assay

Chain of Beta-secretase 1 (P56817 whole entry): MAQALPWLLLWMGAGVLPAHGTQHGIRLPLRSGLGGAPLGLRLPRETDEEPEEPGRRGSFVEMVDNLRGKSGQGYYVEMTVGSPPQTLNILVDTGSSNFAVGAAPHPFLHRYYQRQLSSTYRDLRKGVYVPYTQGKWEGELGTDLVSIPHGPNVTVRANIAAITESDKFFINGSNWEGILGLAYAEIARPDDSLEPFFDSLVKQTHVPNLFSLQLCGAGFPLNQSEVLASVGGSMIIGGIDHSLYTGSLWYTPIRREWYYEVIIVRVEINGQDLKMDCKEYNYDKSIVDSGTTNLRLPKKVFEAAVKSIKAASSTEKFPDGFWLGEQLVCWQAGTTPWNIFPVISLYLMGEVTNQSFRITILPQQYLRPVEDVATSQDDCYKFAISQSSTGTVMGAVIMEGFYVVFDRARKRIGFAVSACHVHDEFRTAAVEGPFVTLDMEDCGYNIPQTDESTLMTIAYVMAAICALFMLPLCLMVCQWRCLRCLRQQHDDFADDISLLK

| SMILES | pIC50 |
| --- | --- |
| C[C@@H](NC(=O)c1cc(OCC(=O)NCCCCCN)cc(-c2ccccc2C#N)c1)c1ccccc1 | 4.68 |
| CC(NC(=O)c1cc(OCC(=O)NCCCCCN)cc(OS(=O)(=O)Cc2ccccc2)c1)c1ccccc1 (single isomer, unassigned) | < 4.00 |
| C[C@@H](NC(=O)c1cc(OCC(=O)NCCCCCN)cc(OS(=O)(=O)Cc2ccccc2)c1)c1ccccc1 | 5.47 |
